Measurements: patent US20180272327A1, “IONIC LIQUID CATALYST TREATING SYSTEM” (UOP LLC, priority 2015, published 2018)

Tested on: Aliivibrio fischeri bacteria
Test: Toxicity test: EC-50 for the luminescence of Aliivibrio fischeri bacteria
Format: cell-based
Settings: for EC-50 for this ionic liquid: worked out from the dilution EC-50 and the ionic liquid content of the solution
Method: After filtration to remove the precipitate, this solution, which contains approximately 0.014 mg of ionic liquid/mg solution, was tested for toxicity. The half maximal effective concentration (EC-50) for this solution was then determined for the luminescence of Aliivibrio fischeri bacteria to assess the toxicity of the solution. […] 10.1 grams of a tri-butyl pentyl phosphonium ionic liquid (TBPP) was added to 770 grams of deionized (DI) water, giving a pH of about 3. […] After filtration to remove the precipitate, this solution, which contains approximately 0.013 mg of ionic liquid/mg solution, was tested for toxicity. The EC-50 for this solution was then determined for the luminescence of Aliivibrio fischeri bacteria to assess the toxicity of the solution.

[1] = luminescence of Aliivibrio fischeri

Row | Compound | EC-50 reached at a dilution (of the neutralized, filtered ionic liquid solution) (luminescence of Aliivibrio fischeri, ionic liquid in DI water neutralized with NaOH to pH approximately 6, precipitate filtered off, approximately 0.013-0.014 mg ionic liquid/mg solution) [mg solution/Liter water] | EC-50 for this ionic liquid [1] | EC50 (Aliivibrio fischeri, read-out: EC-50 reached at a dilution (of the neutralized, filtered ionic liquid solution)) [µg/mL]
1 | tri-butyl pentyl phosphonium ionic liquid [TBPP] | 1.2 | approximately 16 ppB | –
2 | CCCCn1cc[n+](C)c1.F[P-](F)(F)(F)(F)F [BMIM, 1-butyl-3-methylimidazolium hexafluorophosphate] | – | approximately 80 ppB | 5.7
